Results from patent US10131663B2, “Chemical compounds” (AstraZeneca AB, priority 2016, dated 2018).
Values after ≈ are worked out from the molar mass of the structure shown. Where two headings read alike, the source gives them in different places.

Columns and labels:
[1] = Human Caco-2 bidirectional permeability A to B and B to A; type: in vitro ADME; conditions: for Papp at 2 h: Caco-2, 2 hours, pH 7.4; for efflux ratio at 2 h: Caco-2, pH 7.4
Procedure: An automated assay was used to determine the bidirectional permeability (efflux and uptake) of compounds in Caco-2 cells carried out over 2 hours at pH 7.4.
The efflux ratio (ER) can be determined using the following equation: ER=Papp(B-A)/Papp(A-B) Where Papp (B-A) indicates the apparent permeability coefficient in basolateral to apical direction, and Papp (A-B) indicates the apparent permeability coefficient in apical to basolateral direction. Human Caco-2 Passive Permeability A to B Papp

[2] = Human plasma protein binding (equilibrium dialysis); type: in vitro ADME; conditions: dialysis 18 hours
Procedure: The automated equilibrium dialysis assay in human plasma uses the RED (Rapid Equilibrium Dialysis) Device and sample handling. The assay generally runs over two to three days including delivery of results. After dialysis for 18 hours, plasma and buffer samples are prepared for analysis by liquid chromatography and mass spectrometry. Samples are generally tested in singlicates and quantified by LC/MSMS by using a 7-point calibration curve in plasma. The compounds are pooled together in plasma pools up to 10 compounds. Three reference compounds are used in each run, Propranolol, Metoprolol and Warfarin. Warfarin is used as a control in each pool and Propranolol and Metoprolol are placed randomly in each run. An in-house Excel macro is used for preparation of files for the robot and the mass spectrometer and is also used for the calculations of fraction unbound (fu %) in plasma.

[3] = log D (shake flask, 1-octanol/aqueous buffer); type: physicochemical
Excerpt: The lipophilicity of a drug is an important physical property which may influence many biological and metabolic properties of a compound, for example the absorption, distribution, metabolism, excretion and toxicity profiles of a compound. The distribution coefficient between 1-octanol and aqueous buffer, Log DO/W, at pH 7.4, is the most commonly used measurement of the lipophilicity of a compound. The current method for measurement of Log DO/W is based on the traditional shake flask technique, but with the modification of measuring compounds in mixtures of ten at a time using UPLC with quantitative mass spectrometry (MS) as a method to measure the relative octanol and aqueous concentrations. […] An additional QC sample Caffeine, with low Log D, are used and randomly placed in all runs. The method has been thoroughly validated against the previous shake flask methodologies.

[4] = Thermodynamic solubility (shake-flask); type: physicochemical; conditions: aqueous phosphate buffer, 25 °C, pH 7.4, aqueous buffer, thermodynamic from solid, aqueous phosphate buffer pH 7.4, 24 hours
Procedure: The thermodynamic solubility of a research compound is measured under standard conditions. It is a shake-flask approach that uses 10 mM DMSO solutions which are supplied from the Compound Managements liquid store and is a high throughput method. The dried compounds are equilibrated in an aqueous phosphate buffer (pH 7.4) for 24 hours at 25° C., the portion with the dissolved compound is then separated from the remains. The solutions are analyzed and quantified using UPLC/MS/MS, QC-samples are incorporated in each assay-run to ensure the quality of the assay.

[5] = molecular target: Estrogen Receptor (ERα) in MCF-7 cells (Homo sapiens (Human), UniProt P03372); assay: MCF-7 ER down-regulation assay (immuno-fluorescence); type: cell-based
Procedure: The Echo uses acoustic technology to perform direct microplate-to-microplate transfers of DMSO compound solutions to assay plates. […] Cells were fixed at room temperature for 20 mins before being washed two times with 250 μL PBS/Proclin (PBS with a Biocide preservative) using a BioTek platewasher, 40 μL of PBS/Proclin was then added to all wells and the plates stored at 4° C. The fixing method described above was carried out on the Integrated Echo 2 workcell. Immunostaining was performed using an automated AutoElisa workcell. […] The plates were incubated overnight at 4° C. […] The mean total intensity was normalized for cell number giving the total intensity per cell. The data was exported into a suitable software package (such as Origin) to perform curve fitting analysis.

[6] = molecular target: recombinant human Estrogen Receptor alpha ligand binding domain (ER alpha-LBD (GST)) (Homo sapiens (Human), UniProt P03372); assay: ERα binding assay (LanthaScreen TR-FRET competition)
Procedure: The ability of compounds to bind to isolated Estrogen Receptor Alpha Ligand binding domain (ER alpha-LBD (GST)) was assessed in competition assays using a LanthaScreen™ Time-Resolved Fluorescence Resonance Energy Transfer (TR-FRET) detection end-point. […] The assay principle is that ER alpha-LBD (GST) is added to a fluorescent ligand to form a receptor/fluorophore complex. A terbium-labelled anti-GST antibody (Product code PV3551) is used to indirectly label the receptor by binding to its GST tag, and competitive binding is detected by a test compound's ability to displace the fluorescent ligand, resulting in a loss of TR-FRET signal between the Tb-anti-GST antibody and the tracer. The assay was performed as follows with all reagent additions carried out using the Beckman Coulter BioRAPTR FRD microfluidic workstation: • 1. Acoustic dispense 120 nL of the test compound into a black low volume 384 well assay plates. • 2. Prepare 1×ER alpha-LBD/Tb-antiGST Ab in ES2 screening buffer and incubate for 15 minutes. • 3. Dispense 6 μL of the 1×[…]/Tb-anti-GST Ab reagent into each well of the assay plate followed by 6 μL of Fluorophore reagent into each well of the assay plate • 4. Cover the assay plate to protect the reagents from light and evaporation, and incubate at room temperature for 4 hours. • 5.
TR-FRET dose response data obtained with each compound was exported into a suitable software package (such as Origin or Genedata) to perform curve fitting analysis. Competitive ER alpha binding was expressed as an IC50 value.

hERG potassium channel = hERG potassium channel (Homo sapiens (Human), UniProt Q12809); assay: hERG binding assay (automated patch clamp, CHO cells); type: cell-based; conditions: CHO cell line, Nanion Syncropatch 384PE
Procedure: Reagent preparations include: • 1.
Cell preparations: • 1. If using cell culture; cells to be incubated at 30° C. for approximately 4-6 days prior to being used. Day of assay lift cells using accutase and re-suspend in 20 ml cell buffer to a density of 0.8 to 1e6 cells/ml. • 2. If using assay ready cryovials; rapidly thaw two cryovials at 37° C. and slowly pipette into 23 ml external solution • 3.
All compounds were acoustically dispensed in quadruplicate using a Labcyte Echo. […] Fill 384 well medium resistance 4 hole chips with 40 μl external buffer and perfuse internal buffer to the underside of plate. • 2. Dispense 20 μl of cells into each well of the chip followed by 20 μl of seal enhancer. • 3. Remove 40 μl of reagent from each well to the wash station, leaving a residual volume of 40 μl • 4. Dispense 40 μl of reference buffer with a removal step of 40 μl after 3 min, repeat this step. • 5.
hERG-mediated currents were elicited using a voltage step protocol consisting of acontinuous holding voltage of −80 mV, with a 500 ms step to 60 mV followed by a 500 ms step to −40 mV every 15 seconds. hERG current magnitude was measured automatically from the leak-subtracted traces by the Nanion software by taking the peak of the hERG “tail” current at −40 mV every 15 seconds and taking the last three of these responses for each concentration to generate the concentration-effect curve.
Calculation of results is performed using APC package within Genedata. For the routine normalization of well data with Neutral and Inhibitor control well groups as reference, GeneData Assay Analyzer uses the following equation to normalize the signal values to the desired signal range:
[formula] • x is the measured raw signal value of a well • is the median of the measured signal values for the Central Reference (Neutral) wells on a plate • is the median of the measured signal values for the Scale Reference (Inhibitor) wells on a plate • CR is the desired median normalized value for the Central Reference (Neutral) • SR is the desired median normalized value for the Scale Reference (Inhibitor)

[7] = 1-octanol/aqueous buffer, pH 7.4, pH 7.4, 1-octanol/aqueous buffer
[8] = TR-FRET, displacement of Fluormone ES2
[9] = pH 7.4, 1-octanol/aqueous buffer

Sequence of Estrogen Receptor (ERα) in MCF-7 cells (P03372 whole entry): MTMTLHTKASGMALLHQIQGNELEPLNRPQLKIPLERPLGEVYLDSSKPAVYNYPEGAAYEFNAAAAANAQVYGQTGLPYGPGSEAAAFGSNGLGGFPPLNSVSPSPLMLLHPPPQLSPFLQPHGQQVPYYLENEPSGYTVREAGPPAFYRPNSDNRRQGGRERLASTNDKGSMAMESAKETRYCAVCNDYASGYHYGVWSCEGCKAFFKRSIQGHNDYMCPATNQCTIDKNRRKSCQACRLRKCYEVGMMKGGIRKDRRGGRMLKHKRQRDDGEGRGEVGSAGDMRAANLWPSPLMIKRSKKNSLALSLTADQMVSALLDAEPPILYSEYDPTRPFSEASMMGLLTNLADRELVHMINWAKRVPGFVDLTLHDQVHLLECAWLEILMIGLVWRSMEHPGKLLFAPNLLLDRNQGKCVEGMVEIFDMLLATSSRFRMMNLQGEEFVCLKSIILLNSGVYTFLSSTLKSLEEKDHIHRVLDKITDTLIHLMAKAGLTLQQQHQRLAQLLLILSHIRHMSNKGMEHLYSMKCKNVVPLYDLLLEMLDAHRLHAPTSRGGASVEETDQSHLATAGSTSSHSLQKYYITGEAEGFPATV
Sequence of hERG potassium channel (Q12809 whole entry): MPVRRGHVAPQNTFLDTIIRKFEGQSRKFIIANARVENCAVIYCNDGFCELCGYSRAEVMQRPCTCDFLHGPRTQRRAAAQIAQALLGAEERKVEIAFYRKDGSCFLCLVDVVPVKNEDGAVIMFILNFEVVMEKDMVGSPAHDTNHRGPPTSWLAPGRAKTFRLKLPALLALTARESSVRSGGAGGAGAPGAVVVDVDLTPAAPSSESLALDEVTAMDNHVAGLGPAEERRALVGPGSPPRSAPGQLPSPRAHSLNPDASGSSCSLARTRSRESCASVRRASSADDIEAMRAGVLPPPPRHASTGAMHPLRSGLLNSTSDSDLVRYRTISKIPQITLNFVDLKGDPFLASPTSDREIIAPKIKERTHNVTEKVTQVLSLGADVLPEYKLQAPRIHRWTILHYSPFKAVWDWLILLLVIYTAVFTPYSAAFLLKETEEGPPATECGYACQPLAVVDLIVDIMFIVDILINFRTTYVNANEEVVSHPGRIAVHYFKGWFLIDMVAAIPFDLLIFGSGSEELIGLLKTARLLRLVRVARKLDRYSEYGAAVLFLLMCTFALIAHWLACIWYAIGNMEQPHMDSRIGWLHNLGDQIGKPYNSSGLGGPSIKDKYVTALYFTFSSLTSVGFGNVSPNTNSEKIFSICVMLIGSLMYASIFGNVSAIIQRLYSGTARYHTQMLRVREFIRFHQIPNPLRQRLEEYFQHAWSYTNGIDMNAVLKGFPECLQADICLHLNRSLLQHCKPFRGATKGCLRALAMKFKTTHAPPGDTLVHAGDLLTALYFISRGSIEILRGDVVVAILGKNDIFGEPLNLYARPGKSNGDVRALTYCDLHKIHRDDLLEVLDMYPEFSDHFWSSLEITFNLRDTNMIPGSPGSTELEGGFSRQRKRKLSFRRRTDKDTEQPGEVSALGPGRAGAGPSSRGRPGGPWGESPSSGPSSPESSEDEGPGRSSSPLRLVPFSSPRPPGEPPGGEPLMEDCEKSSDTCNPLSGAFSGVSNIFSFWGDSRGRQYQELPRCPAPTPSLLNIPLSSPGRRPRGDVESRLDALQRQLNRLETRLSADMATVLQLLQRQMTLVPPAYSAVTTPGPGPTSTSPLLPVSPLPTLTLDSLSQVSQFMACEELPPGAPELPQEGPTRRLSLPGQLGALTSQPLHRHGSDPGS
Sequence of recombinant human Estrogen Receptor alpha ligand binding domain (ER alpha-LBD (GST)) (P03372 307-554): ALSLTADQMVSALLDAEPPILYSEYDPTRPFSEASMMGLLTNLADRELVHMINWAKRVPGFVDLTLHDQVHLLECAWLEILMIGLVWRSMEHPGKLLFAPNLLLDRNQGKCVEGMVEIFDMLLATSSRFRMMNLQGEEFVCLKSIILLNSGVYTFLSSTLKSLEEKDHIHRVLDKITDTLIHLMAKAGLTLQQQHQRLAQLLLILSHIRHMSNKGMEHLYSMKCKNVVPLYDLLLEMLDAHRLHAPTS

| SMILES | Papp at 2 h [1] [nm/s] | Human plasma protein binding (% free) [2] [% free] | logD [3, 7] | solubility at 24 h [4] [µM] | IC50 [5] [nM] | IC50 [6, 8] [nM] | IC50 (hERG potassium channel) [nM] | efflux ratio at 2 h [1] | logD [3, 9] | IC50 [6] [nM] |
| --- | --- | --- | --- | --- | --- | --- | --- | --- | --- | --- |
| C[C@@H]1Cc2c(ccc3[nH]ncc23)[C@@H](c2ncc(NC3CN(CCCF)C3)cc2F)N1CC(F)(F)CO [Example 31, 2,2-Difluoro-3-((6S,8R)-6-(3-fluoro-5-((1-(3-fluoropropyl)azetidin-3-yl)amino)pyridin-2-yl)-8-methyl-3,6,8,9-tetrahydro-7H-pyrazolo[4,3-f]isoquinolin-7-yl)propan-1-ol] | 9 | 44 | 2 | > 942 |  |  |  |  |  |  |
| C[C@@H]1Cc2c(ccc3[nH]ncc23)[C@@H](c2ccc(NC3CN(CCCF)C3)c(F)c2)N1CC(F)(F)F [Example 41, N-(2-fluoro-4-((6R,8R)-8-methyl-7-(2,2,2-trifluoroethyl)-6,7,8,9-tetrahydro-3H-pyrazolo[4,3-f]isoquinolin-6-yl)phenyl)-1-(3-fluoropropyl)azetidin-3-amine] |  | 2.2 | 4.1 | 120 (≈ 59.2 µg/mL) | 0.17 | 2.4 | 6500 |  |  |  |
| COc1cc(NC2CN(CCCF)C2)ccc1[C@]1(C)c2ccc3[nH]ncc3c2C[C@@H](C)N1CC(F)F [Example 45, N-(4-((6S,8R)-7-(2,2-difluoroethyl)-6,8-dimethyl-6,7,8,9-tetrahydro-3H-pyrazolo[4,3-f]isoquinolin-6-yl)-3-methoxyphenyl)-1-(3-fluoropropyl)azetidin-3-amine] |  | 6.2 | 3.9 | 172 (≈ 86.3 µg/mL) | 0.3 | 1.6 | 4200 |  |  |  |
| C[C@@H]1Cc2c(ccc3[nH]ncc23)[C@@H](c2ccc(NC3CN(CCCF)C3)c(F)n2)N1CC(F)F [Example 47, 6-((6S,8R)-7-(2,2-difluoroethyl)-8-methyl-6,7,8,9-tetrahydro-3H-pyrazolo[4,3-f]isoquinolin-6-yl)-2-fluoro-N-(1-(3-fluoropropyl)azetidin-3-yl)pyridin-3-amine] | 180 |  | 2.6 | > 1000 | 0.41 | 1.2 |  | 1.1 |  |  |
| COc1cc(N(C)C2CN(CCCF)C2)ccc1[C@@H]1c2ccc3[nH]ncc3c2C[C@@H](C)N1CC1(F)CC1 [Example 52, N-(4-((6S,8R)-7-((1-fluorocyclopropyl)methyl)-8-methyl-6,7,8,9-tetrahydro-3H-pyrazolo[4,3-f]isoquinolin-6-yl)-3-methoxyphenyl)-1-(3-fluoropropyl)-N-methylazetidin-3-amine] |  | 19 | 3 | 864 (≈ 440 µg/mL) | 0.21 | 11 | 2000 |  |  |  |
| COc1cc(NC2CN(CCCF)C2)ccc1[C@@H]1c2ccc3[nH]ncc3c2C[C@@H](C)N1CC(F)(F)CO [Example 60, 2,2-difluoro-3-((6S,8R)-6-(4-((1-(3-fluoropropyl)azetidin-3-yl)amino)-2-methoxyphenyl)-8-methyl-3,6,8,9-tetrahydro-7H-pyrazolo[4,3-f]isoquinolin-7-yl)propan-1-ol] | 7 | 23 |  | 593 (≈ 307 µg/mL) | 0.19 |  | 11000 | 34 | 2.5 | 4.7 |
| C[C@@H]1Cc2c(ccc3[nH]nc(F)c23)[C@@H](c2ccc(NC3CN(CCCF)C3)cn2)N1CC(F)(F)CO [Example 61, 2,2-difluoro-3-((6S,8R)-1-fluoro-6-(5-((1-(3-fluoropropyl)azetidin-3-yl)amino)pyridin-2-yl)-8-methyl-3,6,8,9-tetrahydro-7H-pyrazolo[4,3-f]isoquinolin-7-yl)propan-1-ol] |  | 29 | 2.7 | 848 (≈ 430 µg/mL) | 0.13 | 0.88 | > 40000 |  |  |  |
| C[C@@H]1Cc2c(ccc3[nH]nc(F)c23)[C@@H](c2ccc(NC3CN(CCCF)C3)c(F)n2)N1CC(F)(F)CO [Example 62, 2,2-difluoro-3-((6S,8R)-1-fluoro-6-(6-fluoro-5-((1-(3-fluoropropyl)azetidin-3-yl)amino)pyridin-2-yl)-8-methyl-3,6,8,9-tetrahydro-7H-pyrazolo[4,3-f]isoquinolin-7-yl)propan-1-ol] |  | 19 | 2.8 | 784 (≈ 411 µg/mL) | 0.13 | 1 | > 40000 |  |  |  |
| CC1(C)Cc2c(ccc3[nH]ncc23)[C@@H](c2ccc(NC3CN(CCCF)C3)cn2)N1CC(F)F [Example 73, (S)-6-(7-(2,2-difluoroethyl)-8,8-dimethyl-6,7,8,9-tetrahydro-3H-pyrazolo[4,3-f]isoquinolin-6-yl)-N-(1-(3-fluoropropyl)azetidin-3-yl)pyridin-3-amine] |  | 22 |  | 925 (≈ 437 µg/mL) | 0.77 | 3.4 | 12000 |  | 3 |  |
